This is an account of results in publication PMC7865655, “Click Conjugation of Boron Dipyrromethene (BODIPY) Fluorophores to EGFR-Targeting Linear and Cyclic Peptides” (Molecules, 2021).

The test system of one series is HT-29 cells. The series can be described thus: Competitive binding of conjugate 5 with cycloL1.1, BODIPY fluorescence. To be noted: HT-29 (~78% EGFR expression); conjugate 5 at 50 μM, cyclo(K(N3)larllt) 0.25 to 100 μM, 45 min, 37 °C, PBS; ex 614 / em 648 nm; triplicate. In kind it is cell-based. The procedure:
In these studies, HT-29 (~78% EGFR expression), DLD-1 (~40% EGFR expression), and LOVO (~6% EGFR expression) were used.
Cells HT-29 (~78% EGFR) DLD-1 (~37% EGFR) and LOVO (~6% EGFR) with high, moderate, and low EGFR expressions, respectively, were used in these studies. About ten thousand cells of each cell line were coated in a 96 well clear bottom tissue culture black plate and incubated overnight at 37 °C with 5% CO2. […] PBS was used for dilution of compounds. The plate was then covered in aluminum foil and incubated at 37 °C with 5% CO2. After 45 min, each well was washed twice with 100 μL of PBS, and fluorescence was determined with a microplate reader using an excitation wavelength of 614 nm and an emission wavelength of 648 nm. Autofluorescence values were subtracted from each well. A plot of concentrations vs. relative fluorescence was plotted. Results in Figure 4 are expressed as ±S.E.

For series [1] the following is noted: cited from earlier work. The text has this:
(§1) We have previously reported the conjugation of BODIPYs to the EGFR-L1 peptide via traditional amidation reactions, and nucleophilic additions to isothiocyanato-functionalized fluorophores. Herein we report the use of click chemistry for conjugation of two EGFR-L1-derived peptides bearing an azide N-terminus (cycloL1.1 and L1.5) to alkynyl-functionalized BODIPYs. […] In previous work, we reported the conjugation of this peptide to a porphyrin [19], phthalocyanine, and BODIPY dyes, using either traditional amidation methodologies or nucleophilic addition to isothiocyanato-functionalized fluorophores. […] In order ...

Series [2] relates to extracellular domain of EGFR. The settings on record: cited from earlier work; for affinity for EGFR (in words): binding to domain I of the extracellular domain of EGFR.
Source text: as §1

Series [3] has as its system HEp2 cells. The series is described as follows: Dark cytotoxicity, CellTiter Blue assay. In kind it is cell-based, human. To be noted: 24 h incubation, up to 200 µM, darkness. As for the experimental part:
The dark toxicity of all compounds was determined in HEp2 cells at concentrations up to 200 µM, using a CellTiter Blue (CTB) assay to determine cell viability. BODIPYs 1 and 2 (lacking peptide) were included in this study for comparison purposes. […] This might be a result of the presence of the indole group, since it is a known pharmacophore and the basis of many drugs, such as indomethacin [44, 49].
(§2) For cellular studies, commercially available reagents and culture media were purchased from Life Technologies (Carlsbad, CA, USA) and human carcinoma HEp2 (ATCC CCL-23) cells were purchased from the American Type Culture Collection (ATCC) (Manassas, Virginia, USA). HEp2 cells were cultured and maintained at 37 °C under 5% CO2 and 95% humidity in minimum essential media (MEM) supplemented with 10% fetal bovine serum (FBS) and 1% penicillin-streptomycin (P/S).
Stock solutions (32 mM) for compounds 1, 2, 3, 4, and 5 were prepared using 100% DMSO as the solvent. […] Following the incubation period, cell viability was assessed by determining fluorescence intensity at 570/615 nm using a BMG FLUOstar Optima microplate reader (BMG Labtech, Cary, NC, USA). The fluorescence intensity was normalized to 100% for untreated cells and the results are expressed as a percentage of viable cells.
(In general: Alamar Blue is a resazurin reagent that responds to reducing activity.)

Series [4] deals with HEp2 cells. The series is described as follows: Phototoxicity (~1 J·cm^−2), CellTiter Blue assay. In kind it is cell-based, human. The settings on record: up to 100 µM, light dose ~1 J·cm^−2, CellTiter Blue. The procedure:
In addition to dark toxicity, phototoxicity was assessed for the BODIPYs and their conjugates, under a low light dose of ~1 J·cm^−2 in human carcinoma HEp2 cells using the CTB assay to determine cell viability. Dose-dependent cell survival curves of each compound over the incubation period of 24 h are shown in Figure S20 (Supporting Information). […] Nevertheless, all conjugates are considered to have low phototoxicity in HEp2 cells at the low light dose used in this study.
as §2
HEp2 cells were exposed to working solutions of each compound up to 100 µM (0, 3.125, 6.25, 12.5, 25, 50, and 100 µM) and incubated for 24 h (5% CO2, 95% humidity, 37 °C). The loading medium was removed and the cells were washed with PBS solution. […] Cell viability was assessed as described above.

Regarding `CC(C)C[C@H]1NC(=O)[C@H](CCCCN=[N+]=[N-])NC(=O)[C@@H]([C@H](C)O)NC(=O)[C@@H](CC(C)C)NC(=O)[C@@H](CC(C)C)NC(=O)[C@@H](CCCNC(=N)N)NC(=O)[C@@H](C)NC1=O` [cycloL1.1, cyclo(K(N3)larllt)], the “competitive binding: change of BODIPY fluorescence intensity with added cyclic peptide” value in the series with HT-29 cells is reported as “able to replace conjugate 5 competitively”. Further, the “stability in human serum (in words)” value in series [1] is recorded as “enhanced stability in human serum”. The “affinity for EGFR (in words)” value in series [2] is listed as “high affinity”.

Turning to `CCC1=C(C)C2=C(c3ccc(OCc4cn(CCCC[C@H](N)C(=O)N[C@@H](CC(C)C)C(=O)N[C@@H](C)C(=O)N[C@@H](CCCNC(=N)N)C(=O)N[C@@H](CC(C)C)C(=O)N[C@@H](CC(C)C)C(=O)N[C@H](C(N)=O)[C@@H](C)O)nn4)cc3)c3c(C)c(CC)c(C)n3[B-](F)(F)[N+]2=C1C` [Conjugate 3, 1,3,5,7-tetramethyl-2,6-diethyl-8-(4-phenoxymethyltriazole K(N3)LARLLT)-BODIPY], in the series with HEp2 cells [3], the “dark toxicity, ranking in words” value was “least toxic”. Besides, the “phototoxicity, ranking in words” value in the series with HEp2 cells [4] is “least toxic”.

Take “K(N3)LARLLT [Conjugate L1.5, linear EGFR-L1-derived azido peptide]”: the “stability in human serum (in words)” value in series [1] is “enhanced stability in human serum”. Besides, in series [2], the “affinity for EGFR (in words)” value was “increased affinity for EGFR compared to the parent peptide”.

Take “LARLLT [EGFR-L1, EGFR-targeting peptide ligand reported in 2009 by Song et al, reference compound]”: the “affinity for the extracellular domain of EGFR (in words)” value in series [2] (both in vitro and in vivo) is given as “high affinity”.
